We go through 20 compounds from patent US20260216164A1, “INDOLE COMPOUND DECOMPOSING IKZF2, AND USE THEREOF” (KOREA RESEARCH INSTITUTE OF CHEMICAL TECHNOLOGY, priority 2023, published 2026).

The target of the assay is Helios (IKZF2) (Homo sapiens, UniProt Q96SW2+Q9UKS7). In words: Screening of Helios protein degraders using Nano-Glo HiBiT cell line (HiBiT-IKZF2). In kind it is cell-based. The settings on record: for remaining activity at 10 µM: compound 10 μM, read-out: HiBiT-IKZF2 Residual amount of Helios (%) 10 μM; for remaining activity at 10 µM / remaining activity at 1 µM: 6 hours, HiBiT-Helios knock-in Jurkat cells; for remaining activity at 1 µM: compound 1 μM, read-out: HiBiT-IKZF2 Residual amount of Helios (%) 1 μM. The protocol: To observe intracellular degradation of Helios, the Nano-Glo HiBiT detection system (Promega) was employed. […] The cells expressing Helios fused with HiBiT were validated using the Nano-Glo HiBiT detection system (Promega) according to a predetermined protocol, isolated as single cells, and cultured in complete medium to establish a monoclonal cell line.
After 6 hours, the Nano-Glo HiBiT detection reagent was added to each well in an equal volume to the cell culture medium and incubated at room temperature for 10 minutes. Following incubation, the HiBiT luminescence signal was measured using a microplate reader (Perkin Elmer).

Chain of Helios (IKZF2) (Q9UKS7 whole entry, the tested form may be a part): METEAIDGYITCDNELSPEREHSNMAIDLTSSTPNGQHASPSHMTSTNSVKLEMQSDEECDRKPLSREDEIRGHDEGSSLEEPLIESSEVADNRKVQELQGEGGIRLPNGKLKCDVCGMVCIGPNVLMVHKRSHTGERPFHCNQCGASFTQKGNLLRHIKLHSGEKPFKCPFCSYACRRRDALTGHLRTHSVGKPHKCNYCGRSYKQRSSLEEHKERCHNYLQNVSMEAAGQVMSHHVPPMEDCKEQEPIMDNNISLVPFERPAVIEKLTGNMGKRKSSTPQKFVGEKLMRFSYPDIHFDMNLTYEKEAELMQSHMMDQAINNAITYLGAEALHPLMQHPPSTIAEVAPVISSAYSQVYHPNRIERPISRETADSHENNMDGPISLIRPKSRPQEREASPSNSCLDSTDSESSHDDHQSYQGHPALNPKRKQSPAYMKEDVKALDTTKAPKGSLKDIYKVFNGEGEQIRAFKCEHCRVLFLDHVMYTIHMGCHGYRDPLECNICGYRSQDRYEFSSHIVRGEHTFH
Chain of Helios (IKZF2) (Q96SW2 whole entry, the tested form may be a part): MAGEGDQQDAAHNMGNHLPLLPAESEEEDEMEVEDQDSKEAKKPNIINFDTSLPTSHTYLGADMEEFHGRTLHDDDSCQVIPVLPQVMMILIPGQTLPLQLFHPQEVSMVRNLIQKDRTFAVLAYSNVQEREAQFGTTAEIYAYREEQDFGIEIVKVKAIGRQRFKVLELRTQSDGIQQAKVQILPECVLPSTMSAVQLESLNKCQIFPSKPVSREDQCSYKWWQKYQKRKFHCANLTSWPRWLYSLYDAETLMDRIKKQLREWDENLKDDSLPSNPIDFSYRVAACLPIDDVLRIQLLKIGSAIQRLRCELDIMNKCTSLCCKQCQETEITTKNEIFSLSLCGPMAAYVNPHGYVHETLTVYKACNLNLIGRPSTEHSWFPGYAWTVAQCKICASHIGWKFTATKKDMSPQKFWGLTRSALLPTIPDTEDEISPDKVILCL
Chain of Helios (IKZF2) (Q16531 whole entry partner, the tested form may be a part): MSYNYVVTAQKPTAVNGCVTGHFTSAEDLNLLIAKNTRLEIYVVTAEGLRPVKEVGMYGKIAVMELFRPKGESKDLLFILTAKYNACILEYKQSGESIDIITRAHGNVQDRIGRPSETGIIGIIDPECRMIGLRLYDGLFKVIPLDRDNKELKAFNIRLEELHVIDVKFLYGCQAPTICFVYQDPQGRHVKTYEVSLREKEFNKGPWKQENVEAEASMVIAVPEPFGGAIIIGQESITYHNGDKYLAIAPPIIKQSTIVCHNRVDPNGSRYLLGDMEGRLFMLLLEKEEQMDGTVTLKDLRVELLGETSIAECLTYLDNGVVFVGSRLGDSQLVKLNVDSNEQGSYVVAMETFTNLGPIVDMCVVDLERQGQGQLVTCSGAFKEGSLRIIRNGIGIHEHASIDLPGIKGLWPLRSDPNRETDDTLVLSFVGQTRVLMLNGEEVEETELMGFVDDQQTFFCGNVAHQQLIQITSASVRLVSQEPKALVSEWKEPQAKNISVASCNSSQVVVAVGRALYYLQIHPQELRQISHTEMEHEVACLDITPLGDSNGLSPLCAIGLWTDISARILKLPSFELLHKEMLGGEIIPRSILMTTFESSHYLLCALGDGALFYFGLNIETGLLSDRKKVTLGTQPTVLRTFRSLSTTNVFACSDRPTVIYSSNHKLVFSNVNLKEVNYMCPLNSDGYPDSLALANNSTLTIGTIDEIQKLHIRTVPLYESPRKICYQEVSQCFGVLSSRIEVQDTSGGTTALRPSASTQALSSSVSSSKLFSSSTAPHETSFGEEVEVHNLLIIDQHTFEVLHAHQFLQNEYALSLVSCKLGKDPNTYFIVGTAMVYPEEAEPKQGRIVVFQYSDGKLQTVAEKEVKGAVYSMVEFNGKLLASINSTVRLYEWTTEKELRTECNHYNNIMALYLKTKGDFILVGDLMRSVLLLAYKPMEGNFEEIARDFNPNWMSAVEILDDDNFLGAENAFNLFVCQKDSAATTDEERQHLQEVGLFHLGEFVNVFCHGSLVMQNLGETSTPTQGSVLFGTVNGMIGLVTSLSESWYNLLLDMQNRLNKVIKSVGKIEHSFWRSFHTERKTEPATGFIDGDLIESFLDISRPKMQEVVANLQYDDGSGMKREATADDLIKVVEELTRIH

`O=C1CCC(N2Cc3cc(C4CCN(Cc5ccccc5)CC4)ccc3C2=O)C(=O)N1` (centres unmarked) [Comparative Substance 1 (DKY709), reference compound]: the remaining activity at 10 µM came out at 40%. As to `O=C1CCC(N2Cc3cc(C4CCN(C(=O)c5c[nH]c6cc(Cl)ccc56)CC4)ccc3C2=O)C(=O)N1` (centres unmarked) [Comparative Substance 2, 3-(5-(1-(6-chloro-1H-indole-3-carbonyl)piperidin-4-yl)-1-oxoinsoindolin-2-yl)piperidine-2,6-dione, reference compound], the remaining activity at 10 µM stood at 100%. Regarding `O=C1CCC(N2Cc3cc(C4CCN(C(=O)c5nc6ccc(Cl)cc6[nH]5)CC4)ccc3C2=O)C(=O)N1` (centres unmarked) [Comparative Substance 3, 3-(5-(1-(6-chloro-1H-benzo[d]imidazole-2-carbonyl)piperidin-4-yl)-1-oxoinsoindolin-2-yl)piperidine-2,6-dione, reference compound], the remaining activity at 10 µM turned out to be 100%. Further, the “IKZF2 degradation activity (in words, comment on Table 1)” value (as shown in Table 1) is recorded as “no IKZF2 degradation activity was observed”. Consider `COc1ccc2cc(C(=O)Nc3ccc4c(c3)CN(C3CCC(=O)NC3=O)C4=O)ccc2c1` (centres unmarked) [Comparative Substance 4, N-(2-(2,6-dioxopiperidin-3-yl)-1-oxoindolin-5-yl)-6-methoxy-2-naphthamide, reference compound], for which the remaining activity at 1 µM is 58% and the remaining activity at 10 µM was 56.2%. On to `O=C1CCC(N2Cc3cc(C4CCN(C(=O)c5cc6ccc(Cl)c(Cl)c6[nH]5)CC4)ccc3C2=O)C(=O)N1` (centres unmarked) [Compound 2, 3-(5-(1-(6,7-dichloro-1H-indole-2-carbonyl)piperidin-4-yl)-1-oxoinsoindolin-2-yl)piperidine-2,6-dione], for which the remaining activity at 1 µM came to 78.3% and the remaining activity at 10 µM was 92.1%. With `O=C1CCC(N2Cc3cc(C4CCN(C(=O)c5cc6cc(Cl)ccc6[nH]5)CC4)ccc3C2=O)C(=O)N1` (centres unmarked) [Compound 3, 3-(5-(1-(5-chloro-1H-indole-2-carbonyl)piperidin-4-yl)-1-oxoinsoindolin-2-yl)piperidine-2,6-dione], the remaining activity at 1 µM amounted to 102% and the remaining activity at 10 µM amounted to 106%. The corresponding values for `O=C1CCC(N2Cc3cc(C4CCN(C(=O)C5=Nc6cccc(Cl)c6C5)CC4)ccc3C2=O)C(=O)N1` (centres unmarked) [Compound 4, 3-(5-(1-(4-chloro-1H-indole-2-carbonyl)piperidin-4-yl)-1-oxoinsoindolin-2-yl)piperidine-2,6-dione] are 104% and 106%. On to `COc1ccc2cc(C(=O)N3CCC(c4ccc5c(c4)CN(C4CCC(=O)NC4=O)C5=O)CC3)[nH]c2c1` (centres unmarked) [Compound 5, 3-(5-(1-(6-methoxy-1H-indole-2-carbonyl)piperidin-4-yl)-1-oxoinsoindolin-2-yl)piperidine-2,6-dione], for which the remaining activity at 1 µM came out at 86.7% and the remaining activity at 10 µM stood at 88.2%. Regarding `O=C1CCC(N2Cc3cc(C4CCN(C(=O)c5cc6c(Cl)cc(Cl)cc6[nH]5)CC4)ccc3C2=O)C(=O)N1` (centres unmarked) [Compound 6, 3-(5-(1-(4,6-dichloro-1H-indole-2-carbonyl)piperidin-4-yl)-1-oxoinsoindolin-2-yl)piperidine-2,6-dione], the remaining activity at 1 µM was 107% and the remaining activity at 10 µM turned out to be 107%.

Turning to `O=C1CCC(N2Cc3cc(C4CCN(C(=O)c5cc6ccc(F)cc6[nH]5)CC4)ccc3C2=O)C(=O)N1` (centres unmarked) [Compound 7, 3-(5-(1-(6-fluoro-1H-indole-2-carbonyl)piperidin-4-yl)-1-oxoinsoindolin-2-yl)piperidine-2,6-dione], the remaining activity at 1 µM is 93.3% and the remaining activity at 10 µM amounted to 98.6%.

As to `O=C1CCC(N2Cc3cc(C4CCN(C(=O)c5cc6cccc(Cl)c6[nH]5)CC4)ccc3C2=O)C(=O)N1` (centres unmarked) [Compound 8, 3-(5-(1-(7-chloro-1H-indole-2-carbonyl)piperidin-4-yl)-1-oxoinsoindolin-2-yl)piperidine-2,6-dione], the remaining activity at 1 µM turned out to be 99.5% and the remaining activity at 10 µM stood at 109%. The corresponding values for `O=C1CCC(N2Cc3cc(C4CCN(C(=O)c5cc6ccccc6[nH]5)CC4)ccc3C2=O)C(=O)N1` (centres unmarked) [Compound 9, 3-(5-(1-(1H-indole-2-carbonyl)piperidin-4-yl)-1-oxoinsoindolin-2-yl)piperidine-2,6-dione] are 94.5% and 99.5%. Consider `COc1ccc2[nH]c(C(=O)N3CCC(c4ccc5c(c4)CN(C4CCC(=O)NC4=O)C5=O)CC3)cc2c1` (centres unmarked) [Compound 10, 3-(5-(1-(5-methoxy-1H-indole-2-carbonyl)piperidin-4-yl)-1-oxoinsoindolin-2-yl)piperidine-2,6-dione], for which the remaining activity at 1 µM amounted to 94.6% and the remaining activity at 10 µM is 97.3%. For the compound `COc1cccc2[nH]c(C(=O)N3CCC(c4ccc5c(c4)CN(C4CCC(=O)NC4=O)C5=O)CC3)cc12` (centres unmarked) [Compound 11, 3-(5-(1-(4-methoxy-1H-indole-2-carbonyl)piperidin-4-yl)-1-oxoinsoindolin-2-yl)piperidine-2,6-dione], the remaining activity at 1 µM turned out to be 99.5% and the remaining activity at 10 µM worked out at 98%. On to `COc1cccc2cc(C(=O)N3CCC(c4ccc5c(c4)CN(C4CCC(=O)NC4=O)C5=O)CC3)[nH]c12` (centres unmarked) [Compound 12, 3-(5-(1-(7-methoxy-1H-indole-2-carbonyl)piperidin-4-yl)-1-oxoinsoindolin-2-yl)piperidine-2,6-dione], for which the remaining activity at 1 µM worked out at 89.9% and the remaining activity at 10 µM turned out to be 94.1%.

Take `Cc1cccc2[nH]c(C(=O)N3CCC(c4ccc5c(c4)CN(C4CCC(=O)NC4=O)C5=O)CC3)cc12` (centres unmarked) [Compound 14, 3-(5-(1-(4-methyl-1H-indole-2-carbonyl)piperidin-4-yl)-1-oxoinsoindolin-2-yl)piperidine-2,6-dione]: the remaining activity at 1 µM was found to be 89% and the remaining activity at 10 µM was 98.4%. Take `Cc1ccc2cc(C(=O)N3CCC(c4ccc5c(c4)CN(C4CCC(=O)NC4=O)C5=O)CC3)[nH]c2c1` (centres unmarked) [Compound 15, 3-(5-(1-(6-methyl-1H-indole-2-carbonyl)piperidin-4-yl)-1-oxoinsoindolin-2-yl)piperidine-2,6-dione]: the remaining activity at 1 µM turned out to be 66.9% and the remaining activity at 10 µM amounted to 73%. Take `Cc1cccc2cc(C(=O)N3CCC(c4ccc5c(c4)CN(C4CCC(=O)NC4=O)C5=O)CC3)[nH]c12` (centres unmarked) [Compound 16, 3-(5-(1-(7-methyl-1H-indole-2-carbonyl)piperidin-4-yl)-1-oxoinsoindolin-2-yl)piperidine-2,6-dione]: the remaining activity at 1 µM was determined as 78.5% and the remaining activity at 10 µM stood at 80.4%. In the case of `O=C1CCC(N2Cc3cc(C4CCN(C(=O)c5cc6cc(F)ccc6[nH]5)CC4)ccc3C2=O)C(=O)N1` (centres unmarked) [Compound 17, 3-(5-(1-(5-fluoro-1H-indole-2-carbonyl)piperidin-4-yl)-1-oxoinsoindolin-2-yl)piperidine-2,6-dione], the remaining activity at 1 µM turned out to be 95% and the remaining activity at 10 µM was 96.6%.

On to `O=C1CCC(N2Cc3cc(C4CCN(C(=O)c5cc6ccc(O)cc6[nH]5)CC4)ccc3C2=O)C(=O)N1` (centres unmarked) [Compound 18, 3-(5-(1-(6-hydroxy-1H-indole-2-carbonyl)piperidin-4-yl)-1-oxoinsoindolin-2-yl)piperidine-2,6-dione], for which the remaining activity at 1 µM was found to be 53.6% and the remaining activity at 10 µM stood at 54.4%.
